According to patent publication US11046670B2, “Piperazinyl norbenzomorphan compounds and methods for using the same” (priority 2015, dated 2021):
Where two headings read alike, the source gives them in different places.

Columns and labels:
[1] = molecular target: T1, sigma 2 receptor (Rattus norvegicus (Rat), UniProt Q5U3Y7); conditions: for Ki: read-out: σ2 Ki; for Ki(σ1)/Ki(σ2): selectivity σ2 over σ1
Protocol: (§1) Sigma-2 receptor ligands and their binding assays. […] The compounds were dissolved in 100% DMSO prior to the receptor binding assays, which were performed by the Psychoactive Drug Screening Program (PDSP) at Chapel Hill, N.C. […] Briefly, Sig2Rs were sourced from rat liver homogenates (PC12 cells). The Sig2R ligand binding affinity was determined through competition binding assays using the radioligand [^3H]-ditolylguanidine in the presence of (+)-pentazocine to block Sig1R binding sites. The radioactivity in the presence of the test compound is calculated with the following equation and expressed as a percent inhibition: % inhibition=(sample CPM non-specific CPM)/(Total CPM non-specific CPM)×100 where
(§2) CPM stands for counts per minute. To determine secondary binding data, CPM/well are pooled and fitted to a three parameter logistic function for competition binding in Prism v 5.0 to determine IC50 values, which are converted to K, according to the Cheng-Prusoff equation.
(§3) Receptor binding assays were performed by the Psychoactive Drug Screening Program (PDSP) at Chapel Hill, N.C. […] Briefly, Sig1Rs and Sig2Rs were sourced from homogenates of Guinea pig brains and rat livers, respectively. Assessment of Sig1R binding affinity was determined via competition binding assays with the radioligand [3H]-(+)-pentazocine. Sig2R binding affinity was determined through competition binding assays using the radioligand [3H]-ditolylguanidine in the presence of (+)-pentazocine to block Sig1R binding sites. […] The radioactivity in the presence of the test compound is calculated with the following equation and expressed as a percent inhibition: % inhibition=(sample CPM non-specific CPM)/Total CPM−non-specific CPM)×100. The normalization process is carried out in Prism or Excel. To determine secondary binding results, CPM/well are pooled and fitted to a three parameter logistic function for competition binding in Prism v 5.0 to determine IC50 values, which are converted to Ki according to the Cheng-Prusoff equation.

[2] = molecular target: T2, sigma 1 receptor (Cavia porcellus (Guinea pig), UniProt Q60492); test: biochemical; conditions: for inhibition at 10 µM: read-out: σ1 inhibition of radioligand binding
T2 sequence (Q60492 whole entry): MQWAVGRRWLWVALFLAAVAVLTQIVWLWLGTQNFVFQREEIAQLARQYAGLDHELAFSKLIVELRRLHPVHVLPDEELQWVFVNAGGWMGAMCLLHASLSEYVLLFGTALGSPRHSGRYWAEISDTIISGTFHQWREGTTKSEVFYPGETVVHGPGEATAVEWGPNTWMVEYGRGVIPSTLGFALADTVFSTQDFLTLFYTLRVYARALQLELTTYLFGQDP
Protocol: as §3

[3] = molecular target: T1, sigma 2 receptor; test: biochemical; conditions: for inhibition at 10 µM: read-out: σ2 inhibition of radioligand binding
Protocol: as §1, §2, §3

[4] = molecular target: T2, sigma 1 receptor; conditions: for Ki: read-out: σ1 Ki
Protocol: as §3

[5] = tested on: Wild-type mice (C57BL/6) subjected to Blast (brain injury); test: Traumatic Brain Injury, Barnes Maze after blast; format: in vivo; conditions: seven days of daily treatment beginning the day after injury, compared to Veh
Source text: FIG. 9 Traumatic Brain Injury treatment; Barnes Maze (spatial and long term memory) after blast; Wild-type mice (C57BL/6) were subjected to either a Blast (brain injury) or Sham blast (no brain injury).

[6] = tested on: Wild-type mice (C57BL/6) subjected to Blast (brain injury); test: Traumatic Brain Injury, Morris Water Maze after blast; format: in vivo; conditions: seven days of daily treatment beginning the day after injury, compared to Veh
Source text: FIG. 10 Traumatic Brain Injury treatment; Morris Water Maze (spatial and long term memory) after blast; Wild-type mice (C57BL/6) were subjected to either a Blast (brain injury) or Sham blast (no brain injury).

[7] = tested on: neuroblastoma cells; test: Calcium ion levels in neuroblastoma cells; format: cell-based
[8] = tested on: proinflammatory cytokines (IL-1β, TNFα, CD14); test: Brain levels of proinflammatory cytokines in transgenic mice; format: in vivo; conditions: Thy1-APPLond/Swe+ mice, 60 days of treatment (30 mg/kg)
[9] = tested on: Murine hippocampal neuron slices; test: Synaptic long term depression in hippocampal neuron slices
Source text: FIG. 13 Effect of SAS-0132 on Synaptic Long Term Depression (inhibition); effect of SAS-0132 on dihydroxyphenylglycine (DHPG) mediated increase in long term depression (LTD).

[10] = tested on: neuroblastoma cells; test: MTT Assay in Neuroblastoma Cells
Protocol: FIG. 15 MTT Assay in Neuroblastoma Cells; Sigma 2 receptor binding ligands were evaluated for effects in neuroblastoma cells.
FIG. 16 MTT Assay in Neuroblastoma Cells; Sigma 2 receptor binding ligands were evaluated for effects in neuroblastoma cells.

[11] = molecular target: σ2R (Homo sapiens (Human), UniProt Q5BJF2); conditions: cited from earlier work
σ2R, sequence (Q5BJF2 whole entry): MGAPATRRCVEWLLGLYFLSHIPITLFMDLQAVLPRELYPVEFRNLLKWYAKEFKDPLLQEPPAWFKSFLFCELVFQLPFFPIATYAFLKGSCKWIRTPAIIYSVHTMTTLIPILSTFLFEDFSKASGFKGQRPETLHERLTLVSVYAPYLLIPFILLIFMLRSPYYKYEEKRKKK

T1 sequence (Q5U3Y7 whole entry): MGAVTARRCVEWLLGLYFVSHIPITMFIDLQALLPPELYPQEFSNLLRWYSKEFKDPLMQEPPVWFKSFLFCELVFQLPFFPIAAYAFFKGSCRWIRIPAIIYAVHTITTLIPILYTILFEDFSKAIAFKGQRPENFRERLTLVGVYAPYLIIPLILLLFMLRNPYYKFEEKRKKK

Ki [1] [µM] | σ1 pKi ± SEM [4] | Ki [4] [µM] | σ2 pKi ± SEM [1] | Ki(σ1)/Ki(σ2) [1] | SMILES | also measured
0.058 |  |  |  |  | CCCOC(=O)CCN1CCN(c2ccc3c(c2)[C@H]2C[C@H]3CCN2C(=O)OCc2ccccc2)CC1 | 
0.318 | 5.61 ± 0.06 | 2.43 | 6.5 ± 0.1 | 8 | c1ccc(CN2CC[C@@H]3C[C@@H]2c2cc(N4CCCCC4)ccc23)cc1 [Compound 19] | preference / selectivity for σ2R relative to σ1R [1]: about 8 fold
0.016 | 6.76 ± 0.05 | 0.172 | 7.79 ± 0.05 | 11 | C=CCCN1CCN(c2ccc3c(c2)[C@H]2C[C@H]3CCN2C(=O)OCc2ccccc2)CC1 [Compound 29] | 
0.023 | 7.21 ± 0.05 | 0.062 | 7.64 ± 0.07 | 3 | CC(C)=CCN1CCN(c2ccc3c(c2)[C@H]2C[C@H]3CCN2C(=O)OCc2ccccc2)CC1 [Compound 30] | 
0.764 |  |  | 6.12 ± 0.07 |  | CN1CCN(c2ccc3c(c2)[C@H]2C[C@H]3CCN2S(=O)(=O)c2ccccc2)CC1 [Compound 35] | inhibition at 10 µM [2]: < 50%
0.357 | 6.53 ± 0.08 | 0.294 | 6.45 ± 0.06 | 1 | CN1CCN(c2ccc3c(c2)[C@H]2C[C@H]3CCN2C(=O)CCc2ccccc2)CC1 [Compound 36] | 
0.746 |  | 3.52 |  | 5 | Clc1cccc(CN2CC[C@@H]3C[C@@H]2c2cc(N4CCCCC4)ccc23)c1 [Compound 38] | Ki ([2]; σ1 pKi ± SEM): 3160 nM; Ki [3]: 0.794 µM
0.166 |  | 1.06 | 6.8 ± 0.1 | 6 | FC(F)(F)c1ccc(-c2ccc3c(c2)[C@H]2C[C@H]3CCN2CCc2ccccc2)cc1 [Compound 42] | Ki ([2]; σ1 pKi ± SEM): 1000 nM

The next lines start with the molecule.

SMILES | Ki [1] [µM] | σ1 pKi ± SEM [4] | Ki [4] [µM] | σ2 pKi ± SEM [1] | Ki(σ1)/Ki(σ2) [1] | also measured
CN1CCN(c2ccc3c(c2)C2CC3CCN2C(=O)C2CCCCC2)CC1 (racemic) [(±)-TH-1-106, (±)-Cyclohexyl(8-(4-methylpiperazin-1-yl)-1,3,4,5-tetrahydro-2H-1,5-methanobenzo[c]azepin-2-yl)methanone] |  |  |  |  |  | Ki ([2]; σ1 Ki (nM)): 1420 nM; Ki [3]: 0.144 µM
O=C(OCc1ccccc1)N1CC[C@@H]2C[C@@H]1c1cc(Cl)ccc12 [Compound 12] |  |  |  |  |  | inhibition at 10 µM [2]: < 50%; inhibition at 10 µM [3]: < 50%
O=C(OCc1ccccc1)N1CC[C@@H]2C[C@@H]1c1cc(N3CCOCC3)ccc12 [Compound 16] |  |  |  |  |  | sigma receptor binding (in words) [1]: did not bind; inhibition at 10 µM [2]: < 50%; inhibition at 10 µM [3]: < 50%
CN1CCN(c2ccc3c(c2)[C@H]2C[C@H]3CCN2)CC1 [Compound 33] |  |  |  |  |  | inhibition at 10 µM [3]: < 50%
C=CCOC(=O)N1CC[C@@H]2C[C@@H]1c1cc(N3CCN(C)CC3)ccc12 [Compound 37] | 0.442 | 5.68 ± 0.07 | 2.1 | 6.37 ± 0.07 | 5 | 
Clc1cc(Cl)cc(CN2CC[C@@H]3C[C@@H]2c2cc(N4CCOCC4)ccc23)c1 [Compound 39] | 0.092 | 5.53 ± 0.09 | 2.98 |  | 32 | preference / selectivity for σ2R relative to σ1R [1]: 32 fold; Ki [3]: 0.1 µM
Fc1ccccc1CN1CC[C@@H]2C[C@@H]1c1cc(N3CCOCC3)ccc12 [Compound 40] | 1.26 | 5.34 ± 0.09 | 4.54 | 5.9 ± 0.1 | 4 | preference / selectivity for σ2R relative to σ1R [1]: 4 fold
CN1CC[C@@H]2C[C@@H]1c1cc(-c3ccc(C(F)(F)F)cc3)ccc12 [Compound 41] | 0.043 | 6.81 ± 0.09 | 0.156 | 7.36 ± 0.08 | 4 | 
Cc1cccc(-c2ccc3c(c2)[C@H]2C[C@H]3CCN2C)c1 [Compound 43] | 0.133 | 6.41 ± 0.08 | 0.391 | 6.88 ± 0.07 | 3 | 
Cc1cccc(-c2ccc3c(c2)[C@H]2C[C@H]3CCN2Cc2ccc3c(c2)OCO3)c1 [Compound 44] |  |  |  |  | 6 | Ki ([2]; σ1 Ki (nM)): 4610 nM; Ki ([2]; σ1 pKi ± SEM): 4570 nM; Ki [3]: 0.828 µM
CCCN1CCN(c2ccc3c(c2)C2CC3CCN2C(=O)OCc2ccccc2)CC1 (centres unmarked) [DKR-1516] |  |  |  |  |  | spatial- and long term memory, Barnes Maze [5]: performed significantly better; spatial- and long term memory, Morris Water Maze [6]: performed significantly better
CN1CCN(c2ccc3c(c2)[C@H]2C[C@@H]3CCN2C(=O)OCc2ccccc2)CC1 [SAS-0132] |  |  |  |  |  | spatial- and long term memory, Barnes Maze [5]: performed significantly better; DKR-1051-induced calcium response [7]: concentration-dependent attenuation; intracellular Ca2+ concentration ([7]; concentrations up to 30 μM): does not induce significant increases; brain levels of CD14 [8]: not statistically significant; brain levels of IL-1β [8]: significant reduction; brain levels of TNFα [8]: not statistically significant; DHPG-mediated increase in LTD [9]: blocked; concentration at which cytotoxicity begins [10]: around 30 microM; toxicity in MTT assay (in words) [10]: not toxic at low doses
OCCN1CCN(CCCN2c3ccccc3C=Cc3ccccc32)CC1 [opipramol] |  |  |  |  |  | affinity for σ2R [11]: appreciable affinity
